Test results taken from patent US8507436B2, “Peptides derived from plasminogen activator inhibitor-1 and uses thereof” (D-Pharm Ltd., priority 2007, dated 2013).
“And” between values parts separate entries of the source, which are not always exact repeats. Equal values may be shown once.

Key:
[1] = system: tPA; assay: Brain water content after fluid percussion brain injury (FPI) in piglets; assay type: in vivo, pigs; conditions: for Brain water content after FPI in the presence of tPA: tPA 2 mg/kg i.v. with peptide 1 mg/kg i.v.
Protocol: (§1) Fluid Percussion Brain Injury (FPI) method. The method was performed as described by Armstead et al., Nat. Neurosci.
(§2) Brain water content Brain water content (BWC) was determined by measuring the wet and dry weights of the brain tissue and by using the formula BWC=wet weight-dry weight/wet weight×100. Data were analyzed by analysis of variants with a Student-Newman-Keuls post-hoc test. A P<0.05 was considered significant.
(§3) Brain water content (BWC) was determined by measuring the wet and dry weights of the brain tissue and by using the formula BWC=wet weight-dry weight/wet weight×100. Data were analyzed by analysis of variants with a Fischer's post-hoc test. A P<0.05 was considered significant.

[2] = biological target: T1, tPA (Sus scrofa, UniProt Q8SQ23); assay: as above; assay type: in vivo, pigs; conditions: peptide 1 mg/kg i.v. 30 min prior to FPI, no exogenous tPA, normal 78.87±0.75%, vehicle after injury 84.1±0.45%
T1 construct: purchased Genentech, Inc., South San Francisco, Calif
Protocol: as §1, §2, §3

[3] = system: tPA; assay: Infarct volume after embolic stroke in rats; assay type: in vivo
Protocol: (§4) Embolic stroke Embolic stroke was induced according to the previously reported microembolism model (Bdeir, K. et al. 2000 Blood 96, 1820-1826) as adapted to stroke (Atochin, D. N. et al. 2004. Stroke 35, 2177-2182). Microemboli were prepared, dissected, and homogenized as described (Bdeir K et al. 2000, supra). The suspension of microemboli used to induce stroke contained 1.4×10^6 microparticles, with an average diameter of 3 μm.
(§5) Experiments were performed in rats as described previously (Ding-Zhou, L. et al. 2002, supra) with some modifications. Briefly, Sprague-Dawley rats (mean weight 250 g) were anesthetized by i.p. injection of ketamine (75 mg per mL) and xylazine (5 mg per mL). The carotid artery was exposed and an arteriotomy was performed. A polyethylene catheter with an inner diameter of […] was used to inject the solution of microemboli (1.4×10^6 particles) directly into the exposed internal carotid artery. The catheter was flushed with 0.25 ml normal saline and carefully withdrawn. After washing the surgical site with saline containing 1 mM hexacapron, the incision was closed.
(§6) After induction of embolic stroke, rats were divided into 4 treatment groups (n=7 each): tPA (6 mg per kg) or tPA (6 mg per kg) with either peptide 206, peptide 218 O, or peptide 218 N (1 mg per kg) in normal saline were injected i.v., 2 hours after the catheter was withdrawn. Control groups received a vehicle consisting of normal saline alone or peptides 206 or 218 (1 mg per kg) in saline. 50% of the dose was given as a bolus injection and the remainder was infused over 60 min. The rats were returned to their cages after recovering from anesthesia. Twenty-four hours after the procedure, the rats were euthanized with an overdose of Nembutal and the infarct size was measured.
(§7) Measuring infarct volume The brain was removed and sectioned coronally into 2-mm segments. Brain slices were immersed in 2% 2,3,5-triphenyltetrazolium chloride (TTC) in saline, incubated for 30 minutes at 37° C. and placed in 4% formalin/PBS overnight. The area of infarction remains unstained, appearing white, making it clearly distinguishable from stained viable tissue. The sections were photographed and the infarct area measured using the NIH computer image analysis program. Infarct volume was defined as the sum of the unstained areas of all sections, multiplied by their thickness and expressed in cubic millimeters. Data are represented as mean±SE. Differences were analyzed by ANOVA followed by the t-test and the level of significance was corrected using a post-hoc analysis with the Bonferroni test. Statistical significance was set at P<0.05.
(§8) The effect of PAI-1 derived peptides on tPA treated rats after embolic stroke induced by injection of microthrombi directly into the MCA was also examined. […]

[4] = biological target: T2, tPA (Rattus norvegicus, UniProt P19637); assay: Infarct volume after embolic stroke in rats; assay type: in vivo; conditions: peptide 1 mg per kg in saline, absence of tPA
T2 construct: purchased Genentech, Inc., South San Francisco, Calif
Protocol: as §4, §5, §6, §7, §8

[5] = biological target: T3, tPA (Homo sapiens, UniProt P00750); assay: tPA-induced opening of the BBB in mice (Evans blue); assay type: in vivo; conditions: C57/B16 mice, 10 mg/kg tPA with 10 μM peptide i.v.
T3 construct: purchased Genentech, Inc., South San Francisco, Calif
Source text: The brain content of Evans blue was quantified by absorbance at 620 nm.

[6] = biological target: T3, tPA; assay type: in vivo; conditions: rats
Protocol: MCA occlusion. All studies were conducted in accordance with the NIH Guide for the Care and Use of Laboratory Animals. Sprague-Dawley rats (mean weight 250 g) were fed on regular chow and allowed free access to drinking water. Rats were anesthetized with an i.p. injection of ketamine (75 mg per ml, Apharmo) and xylazine (5 mg per ml, Bayer). Body temperature was maintained at 37±0.5° C. by means of a heating lamp. Focal cerebral ischemia was induced by occluding the left MCA with an intraluminal filament (Ding-Zhou, L. et al. 2002 Eur J. Pharmacol. 457, 137-146). Briefly, the left common and external carotid arteries were isolated through a midline neck incision and ligated with a 4-0 silk suture (Ethicon). An arteriotomy was fashioned in the common carotid artery just proximal to the carotid bifurcation. […] Twenty-four hours later. rats were euthanized with an overdose of Nembutal and the infarct size was measured.
Measuring infarct volume The brain was removed and sectioned coronally into 2-mm segments. […] The sections were photographed and the infarct area measured using the NIH computer image analysis program. […] Differences were analyzed by ANOVA followed by the t-test and the level of significance was corrected using a post-hoc analysis with the Bonferroni test. […]
The effect of the PAI-1 derived peptides on infarct size after transient mechanical obstruction of the MCA in rats treated with tPA was examined. tPA injected intravenously two hours after establishing reperfusion increased the infarct size from 16±4.6 to 48.333±8.7 mm3 (FIG. 2). […] The infarct size measured in the presence of peptide 206 was 20.333±4.8 while in the presence of peptide 218 N its size was only 13.3±3.6 mm3 (P<0.05; FIG. 2).
The effect of the PAI-1 derived peptides on infarct size was determined in rats that underwent MCA and reperfusion and four hours later treated with tPA alone or together with PAI-1 derived peptides. tPA injected intravenously four hours after establishing reperfusion increased the infarct size from 68±7 to 77±9 mm3 (FIG. 7).

[7] = biological target: T3, tPA; assay: tPA-related mortality and intracranial hemorrhage after transient mechanical obstruction of the MCA in rats; assay type: in vivo
Protocol: MCA occlusion. All studies were conducted in accordance with the NIH Guide for the Care and Use of Laboratory Animals. Sprague-Dawley rats (mean weight 250 g) were fed on regular chow and allowed free access to drinking water. Rats were anesthetized with an i.p. injection of ketamine (75 mg per ml, Apharmo) and xylazine (5 mg per ml, Bayer). Body temperature was maintained at 37±0.5° C. by means of a heating lamp. Focal cerebral ischemia was induced by occluding the left MCA with an intraluminal filament (Ding-Zhou, L. et al. 2002 Eur J. Pharmacol. 457, 137-146). Briefly, the left common and external carotid arteries were isolated through a midline neck incision and ligated with a 4-0 silk suture (Ethicon). An arteriotomy was fashioned in the common carotid artery just proximal to the carotid bifurcation. A 4-0 nylon monofilament (Ethicon) was introduced through this incision into the internal carotid artery and advanced distal to the carotid bifurcation to occlude the origin of the MCA; the thread was carefully withdrawn 2 hours later. tPA alone at the indicated concentrations, tPA together with the PAI-1 derived peptides 206 (EEIIMD of SEQ ID NO: 11) or peptide 218 N (Ac-RMAPEEIIMDRPFLFVVR-amide of SEQ ID NO: 1) or peptide 218 O (Ac-RMAPEEIIMDRPFLYVVR-amide of SEQ ID NO: 2) were injected i.v. 2 hours after the thread had been withdrawn. Rats were returned to their cages after recovering from anesthesia. Twenty-four hours later. rats were euthanized with an overdose of Nembutal and the infarct size was measured.

T3 sequence (P00750 36-562): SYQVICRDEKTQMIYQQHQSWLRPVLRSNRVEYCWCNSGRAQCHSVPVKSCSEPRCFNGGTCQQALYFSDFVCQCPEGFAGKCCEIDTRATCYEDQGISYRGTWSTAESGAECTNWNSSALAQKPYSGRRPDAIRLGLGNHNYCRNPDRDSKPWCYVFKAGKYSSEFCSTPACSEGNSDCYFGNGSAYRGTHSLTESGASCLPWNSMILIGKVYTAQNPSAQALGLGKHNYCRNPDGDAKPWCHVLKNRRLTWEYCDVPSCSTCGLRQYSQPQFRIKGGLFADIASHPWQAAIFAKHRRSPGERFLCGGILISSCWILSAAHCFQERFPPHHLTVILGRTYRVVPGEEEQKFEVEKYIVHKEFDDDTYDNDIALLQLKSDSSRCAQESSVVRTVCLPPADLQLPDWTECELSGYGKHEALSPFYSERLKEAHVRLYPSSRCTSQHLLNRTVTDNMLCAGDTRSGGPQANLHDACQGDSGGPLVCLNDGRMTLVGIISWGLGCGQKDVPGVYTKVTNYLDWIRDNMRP
T1 sequence (Q8SQ23 36-562): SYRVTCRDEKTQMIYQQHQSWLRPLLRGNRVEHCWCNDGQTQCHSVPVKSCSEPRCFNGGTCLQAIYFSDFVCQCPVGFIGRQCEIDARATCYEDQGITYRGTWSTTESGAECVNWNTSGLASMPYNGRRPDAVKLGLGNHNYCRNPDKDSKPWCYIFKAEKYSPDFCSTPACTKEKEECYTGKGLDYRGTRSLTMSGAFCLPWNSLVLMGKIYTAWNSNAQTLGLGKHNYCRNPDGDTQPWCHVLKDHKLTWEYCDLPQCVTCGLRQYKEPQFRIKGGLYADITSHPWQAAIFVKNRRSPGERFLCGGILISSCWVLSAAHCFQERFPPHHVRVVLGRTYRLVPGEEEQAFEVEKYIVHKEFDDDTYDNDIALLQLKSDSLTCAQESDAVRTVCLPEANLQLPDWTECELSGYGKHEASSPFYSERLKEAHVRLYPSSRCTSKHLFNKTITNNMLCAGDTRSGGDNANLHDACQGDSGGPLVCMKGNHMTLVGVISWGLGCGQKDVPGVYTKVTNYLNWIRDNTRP
T2 sequence (P19637 33-559): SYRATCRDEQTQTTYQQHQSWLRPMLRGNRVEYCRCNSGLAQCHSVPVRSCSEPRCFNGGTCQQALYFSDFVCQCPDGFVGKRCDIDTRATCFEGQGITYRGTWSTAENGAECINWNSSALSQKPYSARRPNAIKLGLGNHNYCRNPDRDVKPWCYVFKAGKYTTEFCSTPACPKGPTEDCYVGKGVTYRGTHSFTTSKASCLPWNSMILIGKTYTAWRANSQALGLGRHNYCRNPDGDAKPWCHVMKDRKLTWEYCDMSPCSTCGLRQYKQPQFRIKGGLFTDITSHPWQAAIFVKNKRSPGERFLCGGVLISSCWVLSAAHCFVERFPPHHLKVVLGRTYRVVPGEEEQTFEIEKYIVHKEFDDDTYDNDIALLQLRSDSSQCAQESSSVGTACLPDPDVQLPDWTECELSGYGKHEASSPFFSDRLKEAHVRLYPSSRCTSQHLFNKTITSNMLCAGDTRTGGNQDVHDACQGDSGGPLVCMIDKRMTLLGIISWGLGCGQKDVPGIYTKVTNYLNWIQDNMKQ

| Molecule | Brain water content after FPI in the presence of tPA [1] [%] | Brain water content after FPI [2] [%] | Infarct volume, tPA with peptide ([3]; tPA 6 mg per kg with peptide 1 mg per kg i.v. two hours after embolization) | Post-stroke infarct size, peptide alone [4] | Prevention of tPA-induced loss of BBB integrity [5] | Infarct size, tPA with peptide four hours after reperfusion (FIG. 7) ([6]; MCA and reperfusion, tPA co-injected with peptide four hours later) | Absolute mortality, tPA co-injected with peptide (FIG. 6A) ([7]; mechanical MCA obstruction, tPA alone 28.6%) [%] | Reduction of the tPA associated increase in mortality (FIG. 6B) ([7]; mechanical MCA obstruction, tPA with peptide) [%] | tPA-induced mortality with peptide, in per cent from Table 1 ([7]; tPA plus peptide, tPA alone ~29%) [%] | Brain water content after FPI, tPA alone ([1]; tPA 2 mg/kg i.v. without peptide) [%] | Decrease of infarct volume by tPA alone ([3]; tPA 6 mg per kg i.v. two hours after embolization) | Infarct size, tPA alone four hours after reperfusion ([6]; MCA and reperfusion, tPA i.v. four hours later, control 68±7) [mm3] | Infarct size, tPA alone ([6]; mechanical MCA obstruction, tPA i.v. two hours after reperfusion, saline control 16±4.6) [mm3] | Mortality, tPA alone, in per cent from Table 1 ([7]; 6 out of 21) [%] | Mortality (dead rats/rats in group) ([7]; Table 1, control 1/12) | Mortality rate, tPA alone (FIG. 6) ([7]; mechanical MCA obstruction, tPA i.v. two hours after reperfusion, saline control 7.7%) [%] |
| --- | --- | --- | --- | --- | --- | --- | --- | --- | --- | --- | --- | --- | --- | --- | --- | --- |
| CC[C@H](C)[C@H](NC(=O)[C@H](CCC(=O)O)NC(=O)[C@H](CCC(=O)O)NC(=O)[C@@H]1CCCN1C(=O)[C@H](C)NC(=O)[C@H](CCSC)NC(=O)[C@H](CCCNC(=N)N)NC(C)=O)C(=O)N[C@H](C(=O)N[C@@H](CCSC)C(=O)N[C@@H](CC(=O)O)C(=O)N[C@@H](CCCNC(=N)N)C(=O)N1CCC[C@H]1C(=O)N[C@@H](Cc1ccccc1)C(=O)N[C@@H](CC(C)C)C(=O)N[C@@H](Cc1ccccc1)C(=O)N[C@H](C(=O)N[C@H](C(=O)N[C@@H](CCCNC(=N)N)C(N)=O)C(C)C)C(C)C)[C@@H](C)CC [peptide 218 N, Ac-RMAPEEIIMDRPFLFVVR-amide] | 79.643±0.51 | 79.343±0.25 | smaller infarct volumes than those treated with tPA and peptide 206 or tPA and peptide 218 O | significantly reduced post-stroke infarct size | about 90% | significantly stronger than that of 218 O and 206 | 15.4 | 63 | 9 | – | – | – | – | – | – | – |
| EEIIMD [peptide 206, 6-mer peptide corresponding to amino acid residues 373-378 of human PAI-1] | 82.351±0.55 | 81.379±0.3 | – | little effect on infarct size | no effect | – | – | – | – | – | – | – | – | – | – | – |
| tPA: Recombinant tPA purchased from Genentech; thrombolytic agent, tissue-type plasminogen activator | – | – | – | – | – | – | – | – | – | 87.12±0.6 | approximately 48% | 77±9 | 48.333±8.7 | ~29 | 6 out of 21 and 6/21 | 28.6 |
